Measurements: patent US11497788B2, “Supramolecular glycosaminoglycans” (Northwestern University, priority 2015, dated 2022)

Experiments:
[1] = system: FGF-2 signaling in BaF3-FR1C cells; experiment: BaF3-FR1C cell proliferation assay with FGF-2; format: cell-based; conditions: FGF-2 10 ng/ml; 2 days
Protocol: BaF3-FR1C Cell Proliferation Assay: Upon reception of a frozen vial, BaF3-FR1C cells were cultured and expanded in growth media as recommended (40). The cells were grown in RPMI1640 medium with 2 mM L-glutamine (Thermo Fisher) containing 10% newborn bovine calf serum (Thermo Fisher), 0.5 ng/mL of recombinant mouse IL-3 (Peprotech), 600 μg/mL of G418 sulfate (Thermo Fisher), 50 nM of 2-mercaptoethanol (Thermo Fisher), and 100 unit/mL penicillin and 100 μg/mL streptomycin (Thermo Fisher) at 37° C., 5% CO2. The medium was changed every 2 days. Experiments were performed using with 1-3 week old passaged cells. The BaF3-FR1C cells were first assessed with the CyQUANT direct cell proliferation assay (Thermo Fisher), but no change in fluorescent signal was observed from a 0 to 2 day old culture in growth conditions although the growth was evident under the microscope. […] For assays testing the effect of heparin and glycopeptide nanofibers FGF-2 induced proliferation, 10,000 cells/well were plated in 50 μl of growth media without G148 sulfate and recombinant mouse IL-3 (NT media) in a 96-well plate. We then added a 2×concentrated mixture of FGF-2 with heparin or glycopeptide nanofibers in the same NT media. […] The absorbance was read at 490 nm in a Cytation 3 instrument (BioTek) and cell growth was compared to cells in NT media. […]

[2] = system: rat posterolateral lumbar intertransverse spinal fusion model; experiment: Rat posterolateral lumbar intertransverse spinal fusion model; format: in vivo
Protocol: Rat Posterolateral Lumbar Intertransverse Spinal Fusion: The study was approved by and conducted in line with the Institutional Animal Care and Use Committee (IACUC) policies and procedures. […] female Sprague-Dawley rats at ages 12-16 weeks were utilized. Animals were assigned to the following treatment groups: 1) 100 ng BMP-2, n=8; 2) 100 ng BMP-2 with PA 4 nanofibers, n=12; and 3) 100 ng BMP-2 with PA 1 nanofibers, n=12. The denoted BMP-2 dose refers to total growth factor amount implanted via two absorbable collagen sponges per animal. For instance, in the 100 ng BMP-2 control group, two collagen sponges (1.75×0.5×0.5 cm) were each impregnated with 50 ng BMP-2 in 100 uL saline containing 6 mM CaCl2, then implanted adjoining the L4-L5 transverse processes on either side of the spine. For PA groups, 100 uL of PA solutions (6 mM) were used in place of saline.
PA solutions were spun down, pipetted for homogeneous mixing, then mixed with BMP-2 at 10:1 vol. ratio to yield 6 mM PA with appropriate BMP-2 concentrations.
Surgical Procedures: Rats were maintained on a heating pad under continuous anesthesia with an isoflurane inhalational anesthetic delivery system, and they were monitored by an assistant for cardiac or respiratory difficulties throughout the procedure. Utilizing a previously-described surgical technique (refs. 23, 41; incorporated by reference in their entireties), the L4 and L5 transverse processes were exposed, irrigated with sterile gentamicin/saline solution, the superficial cortical layer decorticated with a high-speed burr, then collagen sponges with appropriate treatments were implanted bilaterally in the paraspinal musculature between the transverse processes. Afterwards, the fascia and skin incisions were closed, and rats were housed in separate cages.
Manual Palpation: Fusion was assessed via manual palpation following euthanasia at 8 weeks post-surgery. Spines were scored by three blinded observers using a previously established scoring system: 0=no bridging; 1=unilateral bridging; and 2=bilateral bridging (23, 41). To assess fusion rate, spines that received an average score of 1.0 or greater were considered successfully fused.
Micro-Computed Tomography: Synchrotron micro-computed tomography (μCT) was performed on representative samples at station 2-BM of the APS (42, 43). Due to the size constraint of the μCT set-up, harvested spines were sagittally cut along the midline of the vertebrate body, using a slow-speed diamond saw (ref. 43; incorporated by reference in its entirety). Data were acquired with 27 keV photons, projections were recorded every 0.12° over 180°, and reconstruction was on a 2,048×2,048 grid with isotropic 1.45 μm voxels using TomoPy (44). […]

3,4,6S-GlcNAc PA (VVAAEEK) [PA 1, glycosylated peptide amphiphile: Alkyne PA click-conjugated with trisulfated monosaccharide 1]
FGF-2 mediated cell proliferation [1]: improved | fusion scores, blind manual palpation ([2]; 100 ng BMP-2, 6 mM PA, 8 weeks, relative to PA 4 nanofibers or saline): highest fusion scores | fusion rate ([2]; 100 ng BMP-2, 6 mM PA, 8 weeks, score ≥1 = fused): 100% | new bone formation, synchrotron micro-computed tomography ([2]; 100 ng BMP-2 delivered with nanofibers): formation of new bone connecting the transverse processes | reduction of required GF (BMP-2) for spinal fusion ([2]; 100 ng versus 10 μg BMP-2 required in the model): 100 fold
